This is an account of results in US12116388B2, “Amylin receptor agonists” (Novo Nordisk A/S, priority 2022, dated 2024).

pEC50: −log10 of the molar value. Read-outs that look alike come from different tables or passages of the source. Starred links: 1 amine or outer side, 2 acyl side, 3 side chain; linkers in the order of their positions; H or OH if unused. Positions of bridges follow the written chain, without caps; N, C: chain ends. Residues, ends and D or L forms follow the SMILES beside them. *: point of attachment. C20 diacid = O=C(O)CCCCCCCCCCCCCCCCCCC(=O)*; C18 diacid = O=C(O)CCCCCCCCCCCCCCCCC(=O)*; γGlu = O=C(O)[C@H](CCC(=O)[*:2])N[*:1]

Data set [1] is described as follows: Oral pharmacokinetic profiles in Beagle dogs (SNAC tablets). It counts as in vivo. Particulars: oral tablet: 3 mg compound, 300 mg SNAC, 7.7 mg magnesium stearate; for half-life: male, dog, plasma, read-out: T½ (converted). The procedure: To be able to evaluate oral exposure following tablet dosing, tablet compositions comprising the test substance and SNAC (sodium N-(8-(2-hydroxybenzoyl)amino)caprylate) were prepared by mixing test substance with roller compacted SNAC and magnesium stearate as, e.g., described in WO 2019/149880.
This assay was performed to measure the oral bioavailability of a compound. The assay determined the exposure of test compound following oral administration in Beagle dogs as described by relevant pharmacokinetic parameters and plasma concentration curves.
Preparation of tablets for oral administration: tablets containing test compound used for the assay described herein were immediate release SNAC-based tablets. The test compound was spray-dried as neutral sodium salt (pH 7-8). Dry granulation was carried out by roller compaction on a Gerteis MINI-PACTOR. Tablets containing 3 mg test compound, 300 mg sodium N-(8-(2-hydroxybenzoyl)amino)caprylate (SNAC) and 7.7 mg magnesium stearate were produced on at Kilian Style One using 7.2×12 mm punches.
Determination of the absorption following oral administration: eight (8) male Beagle dogs, 1 to 8 years of age and weighing approximately 10-15 kg at the start of the studies, were used. The dogs were group-housed in pens (12 hours light:12 hours dark), and fed individually and restrictedly once daily with Royal Canin Medium Adult dog (Royal Canin Products, China Branch, or Brogaarden A/S, Denmark). Exercise and group social were permitted daily, whenever possible. The dogs were used for repeated pharmacokinetic studies with a suitable wash-out period between successive dosing. An appropriate acclimatisation period was given prior to initiation of the first pharmacokinetic study. All handling, dosing and blood sampling of the animals were performed by trained and skilled staff. Before the studies the dogs were fasted overnight and from 0 to 4 h after dosing. Besides, the dogs were restricted to water 1 hour before dosing until 4 hours after dosing, but otherwise had ad libitum access to water during the whole period.
Tablets containing the test compound were administered in the following manner: 10 min prior to tablet administration the dogs were dosed subcutaneously with approximately 3.2 nmol/kg of glucagon. The tablets were placed in the back of the mouth of the dog to prevent chewing. The mouth was then closed, and 10 mL of tap water was given by a syringe to facilitate swallowing of the tablet. Blood was sampled at predefined time points for up till 288 hours after dosing to adequately cover the full plasma concentration-time absorption profile of the compound. For each blood sampling time point approximately 1.2 mL of whole blood was collected in a 1.5 mL EDTA coated tube, and the tube was gently turned to allowing mixing of the sample with the EDTA. Then, the blood samples were kept on ice until centrifugation (4 min, 4° C., 4000 rpm). Plasma was pipetted into Micronic tubes on dry ice and kept at −20° C. until analysis. Blood samples were taken as appropriate, for example from a venflon in the cephalic vein in the front leg for the first 2 hours and then with syringe from the jugular vein for the rest of the time points (the first few drops were allowed to drain from the venflon to avoid heparin saline from the venflon in the sample).
Bioanalysis was carried out as follows: plasma concentrations of test compound were assayed by plasma protein precipitation and analysed by liquid chromatography-mass spectrometry (LC-MS). Calibrators were prepared by spiking blank dog plasma with analytes to reach the final concentrations in the range typically from 0.5 to 200 nM. Calibrators, plasma blanks or study samples were prepared for LC-MS by protein precipitation by adding 3 volumes of ethanol followed by centrifugation at 4000 rpm at 4° C. for 1 h. The supernatant was diluted with 2 volumes of Milli-Q water containing 0.1% formic acid before injection on the LC-MS system. […]

Data set [2] concerns the target T1, human calcitonin receptor (hCTR) (Homo sapiens, UniProt P30988).
T1 construct: host or cells: BHK (Baby Hamster Kidney), Hollex-1 cell line
T1 sequence (P30988 25-474): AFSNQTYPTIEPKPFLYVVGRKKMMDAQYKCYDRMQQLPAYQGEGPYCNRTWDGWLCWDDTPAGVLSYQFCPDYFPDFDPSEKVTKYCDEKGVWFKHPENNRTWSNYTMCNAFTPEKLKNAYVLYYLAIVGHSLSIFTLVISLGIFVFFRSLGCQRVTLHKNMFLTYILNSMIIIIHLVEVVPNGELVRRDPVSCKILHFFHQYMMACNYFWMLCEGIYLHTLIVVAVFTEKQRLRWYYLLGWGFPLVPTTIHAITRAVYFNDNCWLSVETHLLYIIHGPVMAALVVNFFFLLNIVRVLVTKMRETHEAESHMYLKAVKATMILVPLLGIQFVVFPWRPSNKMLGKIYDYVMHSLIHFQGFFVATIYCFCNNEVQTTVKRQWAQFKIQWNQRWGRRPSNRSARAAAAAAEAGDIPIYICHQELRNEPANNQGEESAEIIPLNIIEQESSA
In words: Human calcitonin receptor (hCTR) in vitro potency assay, CRE-luciferase reporter in BHK cells. Format: cell-based. Particulars: BHK hCTR/CRE-Luc cells, 3 hours incubation, assay buffer with 1% ovalbumin; read-out: hCalcR potency, EC50. The procedure, abridged:
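Luciferase signal from a CRE reporter served as the cAMP read-out after 3 h, 37 °C exposure to compound. Cells were stably transfected BHK expressing hCTR, and the buffer was phenol-red-free DMEM with 10 mM HEPES and 1% ovalbumin. Compounds were tested as 7-point, 7-fold dilutions, often from about 10 nM.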

Data set [3] addresses T2, human amylin receptor (hAMYR3) (Homo sapiens, UniProt O60896+P30988).
T2 construct: host or cells: BHK (Baby Hamster Kidney), Hollex-1 cell line further transfected with RAMP3
The experiment in a line: Human amylin receptor (hAMYR3) in vitro potency assay, CRE-luciferase reporter in BHK cells. It counts as cell-based. The note with it: BHK hAMYR3/CRE-Luc cells, 3 hours incubation, assay buffer with 1% ovalbumin. The procedure, abridged: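 Luminescence from a CRE-driven luciferase reporter reflects cAMP-mediated receptor activation. Peptides were serially diluted (7 concentrations, 7-fold steps, typically starting near 10 nM) in buffer with 1% ovalbumin and applied for 3 h at 37 °C to BHK cells co-expressing calcitonin receptor (a) and RAMP3.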
(Reporter assays use an easily measured gene product as a stand-in for the process of interest.)

For data set [4] the following is noted: endogenous amylin, background statement; cited from earlier work.

T2 sequence (O60896 24-148, one chain of several): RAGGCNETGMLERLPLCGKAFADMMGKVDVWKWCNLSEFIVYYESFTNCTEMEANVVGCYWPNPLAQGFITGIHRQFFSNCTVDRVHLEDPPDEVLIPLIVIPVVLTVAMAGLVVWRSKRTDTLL

On to `CC[C@H](C)[C@H](NC(=O)[C@@H]1CCCN1C(=O)CNC(=O)[C@H](Cc1ccccc1)NC(=O)[C@H](CC(N)=O)NC(=O)[C@H](CC(N)=O)NC(=O)[C@H](CO)NC(=O)[C@H](CO)NC(=O)[C@H](Cc1c[nH]cn1)NC(=O)[C@H](CCCNC(=N)N)NC(=O)[C@H](CC(C)C)NC(=O)[C@H](Cc1ccccc1)NC(=O)[C@H](CCC(=O)O)NC(=O)[C@H](C)NC(=O)[C@H](CC(C)C)NC(=O)[C@H](CCCNC(=N)N)NC(=O)[C@H](CCC(N)=O)NC(=O)[C@@H](NC(=O)[C@H](C)NC(=O)[C@@H]1CSSC[C@H](NC(=O)[C@H](CCCCN)NC(=O)CC[C@H](NC(=O)CCCCCCCCCCCCCCCCCCC(=O)O)C(=O)O)C(=O)N[C@@H](CC(N)=O)C(=O)N[C@@H]([C@@H](C)O)C(=O)N[C@@H](C)C(=O)N[C@@H]([C@@H](C)O)C(=O)N1)[C@@H](C)O)C(=O)N[C@@H](CC(C)C)C(=O)N1CCC[C@H]1C(=O)N1CCC[C@H]1C(=O)N[C@H](C(=O)N[C@@H](CCC(N)=O)C(=O)N[C@H](C(=O)NCC(=O)N[C@@H](CO)C(=O)N[C@@H](CC(N)=O)C(=O)N[C@H](C(=O)N1CCC[C@H]1C(N)=O)[C@@H](C)O)C(C)C)[C@@H](C)O` [Compound 1, N^1Alpha-[(4S)-4-carboxy-4-(19-carboxynonadecanoylamino)butanoyl]-[Glu14,Arg17,Pro25,Pro28,Pro29,Gln31,Pro37]-human amylin, reference compound] ({C20 diacid-γGlu}-KCNTATCATQRLAEFLRHSSNNFGPILPPTQVGSNTP-NH2; disulfide 2-7), for which, in data set [1], the “Cmax/D” value turned out to be 0.057 kg/L.
On to `CC[C@H](C)[C@H](NC(=O)[C@@H]1CCCN1C(=O)CNC(=O)[C@H](Cc1ccccc1)NC(=O)[C@H](CC(N)=O)NC(=O)[C@H](CC(=O)O)NC(=O)[C@H](CO)NC(=O)[C@H](CO)NC(=O)[C@H](Cc1c[nH]cn1)NC(=O)[C@H](Cc1c[nH]cn1)NC(=O)[C@H](CC(C)C)NC(=O)[C@H](Cc1ccccc1)NC(=O)[C@H](CCC(=O)O)NC(=O)[C@H](C)NC(=O)[C@H](CC(C)C)NC(=O)[C@H](CCCNC(=N)N)NC(=O)[C@H](C)NC(=O)[C@@H](NC(=O)[C@H](CCC(N)=O)NC(=O)[C@H](C)NC(=O)[C@@H](NC(=O)[C@H](CO)NC(=O)[C@H](CC(C)C)NC(=O)[C@H](Cc1c[nH]cn1)NC(=O)[C@H](CO)NC(=O)[C@H](C)NC(=O)CC[C@H](NC(=O)CCCCCCCCCCCCCCCCCCC(=O)O)C(=O)O)[C@@H](C)O)[C@@H](C)O)C(=O)N[C@@H](CC(C)C)C(=O)N1CCC[C@H]1C(=O)N1CCC[C@H]1C(=O)N[C@H](C(=O)N[C@@H](CC(=O)O)C(=O)N[C@H](C(=O)NCC(=O)N[C@@H](CO)C(=O)N[C@@H](CC(N)=O)C(=O)N[C@H](C(=O)N1CCC[C@H]1C(N)=O)[C@@H](C)O)C(C)C)[C@@H](C)O` [Compound 2, N^1-[(4S)-4-carboxy-4-(19-carboxynonadecanoylamino)butanoyl]-[Ala1,Ser2,His3,Leu4,Ser5,Ala7,Gln8,Ala10,Glu14,His17,Asp21,Pro25,Pro28,Pro29,Asp31,Pro37]-human amylin] ({C20 diacid-γGlu}-ASHLSTAQTARLAEFLHHSSDNFGPILPPTDVGSNTP-NH2), for which, in data set [1], the half-life was 146 h, the “AUC/D” value was 14.06 kg·h/L and the “Cmax/D” value is reported as 0.15 kg/L. In addition, the negative-log EC50 (pEC50) in data set [2] is 11.88.
With `CC[C@H](C)[C@H](NC(=O)[C@@H]1CCCN1C(=O)CNC(=O)[C@H](Cc1ccccc1)NC(=O)[C@H](Cc1c[nH]cn1)NC(=O)[C@H](Cc1c[nH]cn1)NC(=O)[C@H](CC(C)C)NC(=O)[C@H](Cc1ccccc1)NC(=O)[C@H](CCC(=O)O)NC(=O)[C@H](C)NC(=O)[C@H](CC(C)C)NC(=O)[C@H](CCCNC(=N)N)NC(=O)[C@H](C)NC(=O)[C@@H](NC(=O)[C@H](CCC(N)=O)NC(=O)[C@H](C)NC(=O)[C@@H](NC(=O)[C@H](CO)NC(=O)[C@H](CC(C)C)NC(=O)[C@H](CO)NC(=O)CNC(=O)[C@H](C)NC(=O)CC[C@H](NC(=O)CCCCCCCCCCCCCCCCC(=O)O)C(=O)O)[C@@H](C)O)[C@@H](C)O)C(=O)N[C@@H](CC(C)C)C(=O)N1CCC[C@H]1C(=O)N1CCC[C@H]1C(=O)N[C@H](C(=O)N[C@@H](CC(=O)O)C(=O)N[C@H](C(=O)NCC(=O)N[C@@H](CO)C(=O)N[C@@H](CCC(=O)O)C(=O)N[C@H](C(=O)N1CCC[C@H]1C(N)=O)[C@@H](C)O)C(C)C)[C@@H](C)O` [Compound 15, N^1-[(4S)-4-carboxy-4-(17-carboxyheptadecanoylamino)butanoy]-[Ala1,Gly2,Ser3,Leu4,Ser5,Ala7,Gln8,Ala10,Glu14,His17,Pro25,Pro28,Pro29,Asp31,Glu35,Pro37],des-(19-22)-human amylin] ({C18 diacid-γGlu}-AGSLSTAQTARLAEFLHHFGPILPPTDVGSETP-NH2), in data set [1], the half-life is 85.9 h, the “AUC/D” value was 21.07 kg·h/L and the “Cmax/D” value came out at 0.29 kg/L. In addition, in data set [2], the pEC50 was 12.00.
In the case of `CC[C@H](C)[C@H](NC(=O)[C@@H]1CCCN1C(=O)CNC(=O)[C@H](Cc1ccccc1)NC(=O)[C@H](CC(N)=O)NC(=O)[C@H](CC(N)=O)NC(=O)[C@H](CO)NC(=O)[C@H](CO)NC(=O)[C@H](Cc1c[nH]cn1)NC(=O)[C@H](CCCNC(=N)N)NC(=O)[C@H](CC(C)C)NC(=O)[C@H](Cc1ccccc1)NC(=O)[C@H](CCC(=O)O)NC(=O)[C@H](C)NC(=O)[C@H](CC(C)C)NC(=O)[C@H](CCCNC(=N)N)NC(=O)[C@H](CCC(N)=O)NC(=O)[C@@H](NC(=O)[C@H](C)NC(=O)[C@@H]1CSSC[C@H](NC(=O)[C@H](CCCCN)NC(=O)CC[C@H](NC(=O)CCCCCCCCCCCCCCCCCCC(=O)O)C(=O)O)C(=O)N[C@@H](CC(N)=O)C(=O)N[C@@H]([C@@H](C)O)C(=O)N[C@@H](C)C(=O)N[C@@H]([C@@H](C)O)C(=O)N1)[C@@H](C)O)C(=O)N[C@@H](CC(C)C)C(=O)N1CCC[C@H]1C(=O)N1CCC[C@H]1C(=O)N[C@H](C(=O)N[C@@H](CC(N)=O)C(=O)N[C@H](C(=O)NCC(=O)N[C@@H](CO)C(=O)N[C@@H](CC(N)=O)C(=O)N[C@H](C(=O)N1CCC[C@H]1C(N)=O)[C@@H](C)O)C(C)C)[C@@H](C)O` [cagrilintide, reference compound], the results for the pEC50 in data set [2] and in data set [3] were 11.60 and 11.80, respectively.
Turning to “amylin (KCNTATCATQRLANFLVHSSNNFGAILSSTNVGSNTY; listed as Homo sapiens) [Endogenous amylin, 37-amino acid long polypeptide hormone co-secreted with insulin from the pancreatic beta-cell]”, the half-life in data set [4] is 0.25 to 0.333 h.

The term pEC50 denotes the negative decadic logarithm of the EC50, by convention in mol/L.
